# Experimental data taken from patent US20240409585A1, “MACROCYCLIC IMMUNOMODULATORS” (priority 2021, published 2024).
# Bridge positions count the residues as written; N and C are the ends. Square brackets hold non-standard residues; d marks the D form. Peptide text beside a SMILES is read from it. Bip = N[C@@H](Cc1ccc(-c2ccccc2)cc1)C(=O)O; Phe(3-Me) = Cc1cccc(C[C@H](N)C(=O)O)c1; Val(3-OH) = CC(C)(O)[C@H](N)C(=O)O; Cha = N[C@@H](CC1CCCCC1)C(=O)O; Cit = NC(=O)NCCC[C@H](N)C(=O)O; NMeA = CN[C@@H](C)C(=O)O; Dab = NCC[C@H](N)C(=O)O
# Biological target: T1, PE-labeled human PD-L1-Ig binding to Jurkat cell line over-expressing human PD-1 (Jurkat-PD-1) (Homo sapiens, UniProt Q15116)
# T1 construct: expressed in transfected cells; host or cells: Jurkat
# Experiment: Jurkat-PD-1 Cell Binding High-Content Screening Assay (CBA): Method 1
# Details: Jurkat-hPD-1 cells, PE-labeled PD-L1-Ig 20 nM final; read-out: Jurkat HPDL1 PD1 IC50 (uM) (Method 1)
# T1 sequence (Q15116 25-288): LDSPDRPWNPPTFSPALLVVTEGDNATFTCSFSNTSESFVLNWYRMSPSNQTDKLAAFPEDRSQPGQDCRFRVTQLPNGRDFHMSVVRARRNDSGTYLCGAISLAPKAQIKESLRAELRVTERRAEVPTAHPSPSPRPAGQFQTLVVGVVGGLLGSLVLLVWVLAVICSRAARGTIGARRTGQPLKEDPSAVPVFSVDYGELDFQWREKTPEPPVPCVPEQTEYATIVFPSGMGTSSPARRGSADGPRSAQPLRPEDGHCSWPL
row,Compound,IC50
1,CC[C@H](C)[C@@H]1NC(=O)[C@H](Cc2ccc(-c3ccccc3)cc2)NC(=O)[C@H](C(C)(C)O)NC(=O)[C@H](Cc2cccc(C)c2)NC(=O)[C@H](CC(=O)O)NC(=O)[C@H](Cc2ccc(O)cc2)NC(=O)[C@H](CC(N)=O)NC(=O)CSC[C@@H](C(=O)N[C@@H](CCN)C(N)=O)NC(=O)[C@H]([C@@H](C)O)NC(=O)[C@H](C(C)(C)O)NC(=O)[C@H](CC2CCCCC2)NC(=O)[C@H](CCN)NC(=O)[C@@H](CC(C)C)NC(=O)[C@H](C)N(C)C1=O [Compound 1693] ({CH2CO}-NYD[Phe(3-Me)][Val(3-OH)][Bip]I[NMeA][dL][Dab][Cha][Val(3-OH)]TC[Dab]-NH2; thioether N-14),0.02 µM
2,CC[C@H](C)[C@@H]1NC(=O)[C@H](Cc2ccc(-c3ccccc3)cc2)NC(=O)[C@H](C(C)(C)O)NC(=O)[C@H](Cc2cccc(C)c2)NC(=O)[C@H](CC(=O)O)NC(=O)[C@H](Cc2ccc(O)cc2)NC(=O)[C@H](CC(N)=O)NC(=O)CSC[C@@H](C(=O)N[C@H](C)C(N)=O)NC(=O)[C@H]([C@@H](C)O)NC(=O)[C@H](C(C)(C)O)NC(=O)[C@H](CC2CCCCC2)NC(=O)[C@H](CCN)NC(=O)[C@@H](CC(C)C)NC(=O)[C@H](C)N(C)C1=O [Compound 1694] ({CH2CO}-NYD[Phe(3-Me)][Val(3-OH)][Bip]I[NMeA][dL][Dab][Cha][Val(3-OH)]TC[dA]-NH2; thioether N-14),0.1 µM
3,CC[C@H](C)[C@@H]1NC(=O)[C@H](Cc2ccc(-c3ccccc3)cc2)NC(=O)[C@H](C(C)C)NC(=O)[C@H](Cc2cccc(C)c2)NC(=O)[C@H](CC(=O)O)NC(=O)[C@H](Cc2ccc(O)cc2)NC(=O)[C@H](CC(N)=O)NC(=O)CSC[C@@H](C(=O)N[C@@H](CCN)C(N)=O)NC(=O)[C@H](CCC(=O)O)NC(=O)[C@H](C(C)(C)O)NC(=O)[C@H](CC2CCCCC2)NC(=O)[C@H](CCN)NC(=O)[C@@H](CC(C)C)NC(=O)[C@H](C)N(C)C1=O [Compound 1695] ({CH2CO}-NYD[Phe(3-Me)]V[Bip]I[NMeA][dL][Dab][Cha][Val(3-OH)]EC[Dab]-NH2; thioether N-14),0.01 µM
4,CC[C@H](C)[C@@H]1NC(=O)[C@H](Cc2ccc(-c3ccccc3)cc2)NC(=O)[C@H](C(C)C)NC(=O)[C@H](Cc2cccc(C)c2)NC(=O)[C@H](CC(=O)O)NC(=O)[C@H](Cc2ccc(O)cc2)NC(=O)[C@H](CC(N)=O)NC(=O)CSC[C@@H](C(=O)N[C@H](C)C(N)=O)NC(=O)[C@H](CCC(=O)O)NC(=O)[C@H](C(C)(C)O)NC(=O)[C@H](CC2CCCCC2)NC(=O)[C@H](CCN)NC(=O)[C@@H](CC(C)C)NC(=O)[C@H](C)N(C)C1=O [Compound 1696] ({CH2CO}-NYD[Phe(3-Me)]V[Bip]I[NMeA][dL][Dab][Cha][Val(3-OH)]EC[dA]-NH2; thioether N-14),0.01 µM
5,CC[C@H](C)[C@@H]1NC(=O)[C@H](Cc2ccc(-c3ccccc3)cc2)NC(=O)[C@H](C(C)(C)O)NC(=O)[C@H](Cc2cccc(C)c2)NC(=O)[C@H](CC(=O)O)NC(=O)[C@H](Cc2ccc(O)cc2)NC(=O)[C@H](CC(N)=O)NC(=O)CSC[C@@H](C(=O)N[C@@H](CCN)C(N)=O)NC(=O)[C@H](CCC(=O)O)NC(=O)[C@H](C(C)C)NC(=O)[C@H](CC2CCCCC2)NC(=O)[C@H](CCN)NC(=O)[C@@H](CC(C)C)NC(=O)[C@H](C)N(C)C1=O [Compound 1697] ({CH2CO}-NYD[Phe(3-Me)][Val(3-OH)][Bip]I[NMeA][dL][Dab][Cha]VEC[Dab]-NH2; thioether N-14),0.02 µM
6,CC[C@H](C)[C@@H]1NC(=O)[C@H](Cc2ccc(-c3ccccc3)cc2)NC(=O)[C@H](C(C)(C)O)NC(=O)[C@H](Cc2cccc(C)c2)NC(=O)[C@H](CC(=O)O)NC(=O)[C@H](Cc2ccc(O)cc2)NC(=O)[C@H](CC(N)=O)NC(=O)CSC[C@@H](C(=O)N[C@H](C)C(N)=O)NC(=O)[C@H](CCC(=O)O)NC(=O)[C@H](C(C)C)NC(=O)[C@H](CC2CCCCC2)NC(=O)[C@H](CCN)NC(=O)[C@@H](CC(C)C)NC(=O)[C@H](C)N(C)C1=O [Compound 1698] ({CH2CO}-NYD[Phe(3-Me)][Val(3-OH)][Bip]I[NMeA][dL][Dab][Cha]VEC[dA]-NH2; thioether N-14),0.1 µM
7,CC[C@H](C)[C@@H]1NC(=O)[C@H](Cc2ccc(-c3ccccc3)cc2)NC(=O)[C@H](C(C)(C)O)NC(=O)[C@H](Cc2cccc(C)c2)NC(=O)[C@H](CC(=O)O)NC(=O)[C@H](Cc2ccc(O)cc2)NC(=O)[C@H](CC(N)=O)NC(=O)CSC[C@@H](C(=O)N[C@@H](CCN)C(N)=O)NC(=O)[C@H](CCC(=O)O)NC(=O)[C@H](C(C)(C)O)NC(=O)[C@H](CC2CCCCC2)NC(=O)[C@H](CCN)NC(=O)[C@@H](CC(C)C)NC(=O)[C@H](C)N(C)C1=O [Compound 1699] ({CH2CO}-NYD[Phe(3-Me)][Val(3-OH)][Bip]I[NMeA][dL][Dab][Cha][Val(3-OH)]EC[Dab]-NH2; thioether N-14),0.04 µM
8,CC[C@H](C)[C@@H]1NC(=O)[C@H](Cc2ccc(-c3ccccc3)cc2)NC(=O)[C@H](C(C)(C)O)NC(=O)[C@H](Cc2cccc(C)c2)NC(=O)[C@H](CC(=O)O)NC(=O)[C@H](Cc2ccc(O)cc2)NC(=O)[C@H](CC(N)=O)NC(=O)CSC[C@@H](C(=O)N[C@H](C)C(N)=O)NC(=O)[C@H](CCC(=O)O)NC(=O)[C@H](C(C)(C)O)NC(=O)[C@H](CC2CCCCC2)NC(=O)[C@H](CCN)NC(=O)[C@@H](CC(C)C)NC(=O)[C@H](C)N(C)C1=O [Compound 1700] ({CH2CO}-NYD[Phe(3-Me)][Val(3-OH)][Bip]I[NMeA][dL][Dab][Cha][Val(3-OH)]EC[dA]-NH2; thioether N-14),0.18 µM

# The next lines start with the values.
row,IC50,Compound
1,0.01 µM,Cc1cccc(C[C@@H]2NC(=O)[C@H](CC(=O)O)NC(=O)[C@H](Cc3ccc(O)cc3)NC(=O)[C@H](CC(N)=O)NC(=O)CSC[C@@H](C(=O)N[C@@H](CCN)C(N)=O)NC(=O)[C@H]([C@@H](C)O)NC(=O)[C@H](C(C)(C)O)NC(=O)[C@H](CC3CCCCC3)NC(=O)[C@H](CCN)NC(=O)[C@@H](CC(C)C)NC(=O)[C@H](C)N(C)C(=O)[C@H](CCCNC(N)=O)NC(=O)[C@H](Cc3ccc(-c4ccccc4)cc3)NC(=O)[C@H](C(C)C)NC2=O)c1 [Compound 1701] ({CH2CO}-NYD[Phe(3-Me)]V[Bip][Cit][NMeA][dL][Dab][Cha][Val(3-OH)]TC[Dab]-NH2; thioether N-14)
2,0.02 µM,Cc1cccc(C[C@@H]2NC(=O)[C@H](CC(=O)O)NC(=O)[C@H](Cc3ccc(O)cc3)NC(=O)[C@H](CC(N)=O)NC(=O)CSC[C@@H](C(=O)N[C@@H](CCN)C(N)=O)NC(=O)[C@H]([C@@H](C)O)NC(=O)[C@H](C(C)C)NC(=O)[C@H](CC3CCCCC3)NC(=O)[C@H](CCN)NC(=O)[C@@H](CC(C)C)NC(=O)[C@H](C)N(C)C(=O)[C@H](CCCNC(N)=O)NC(=O)[C@H](Cc3ccc(-c4ccccc4)cc3)NC(=O)[C@H](C(C)(C)O)NC2=O)c1 [Compound 1703] ({CH2CO}-NYD[Phe(3-Me)][Val(3-OH)][Bip][Cit][NMeA][dL][Dab][Cha]VTC[Dab]-NH2; thioether N-14)
3,0.15 µM,Cc1cccc(C[C@@H]2NC(=O)[C@H](CC(=O)O)NC(=O)[C@H](Cc3ccc(O)cc3)NC(=O)[C@H](CC(N)=O)NC(=O)CSC[C@@H](C(=O)N[C@H](C)C(N)=O)NC(=O)[C@H]([C@@H](C)O)NC(=O)[C@H](C(C)C)NC(=O)[C@H](CC3CCCCC3)NC(=O)[C@H](CCN)NC(=O)[C@@H](CC(C)C)NC(=O)[C@H](C)N(C)C(=O)[C@H](CCCNC(N)=O)NC(=O)[C@H](Cc3ccc(-c4ccccc4)cc3)NC(=O)[C@H](C(C)(C)O)NC2=O)c1 [Compound 1704] ({CH2CO}-NYD[Phe(3-Me)][Val(3-OH)][Bip][Cit][NMeA][dL][Dab][Cha]VTC[dA]-NH2; thioether N-14)
4,0.03 µM,Cc1cccc(C[C@@H]2NC(=O)[C@H](CC(=O)O)NC(=O)[C@H](Cc3ccc(O)cc3)NC(=O)[C@H](CC(N)=O)NC(=O)CSC[C@@H](C(=O)N[C@@H](CCN)C(N)=O)NC(=O)[C@H]([C@@H](C)O)NC(=O)[C@H](C(C)(C)O)NC(=O)[C@H](CC3CCCCC3)NC(=O)[C@H](CCN)NC(=O)[C@@H](CC(C)C)NC(=O)[C@H](C)N(C)C(=O)[C@H](CCCNC(N)=O)NC(=O)[C@H](Cc3ccc(-c4ccccc4)cc3)NC(=O)[C@H](C(C)(C)O)NC2=O)c1 [Compound 1705] ({CH2CO}-NYD[Phe(3-Me)][Val(3-OH)][Bip][Cit][NMeA][dL][Dab][Cha][Val(3-OH)]TC[Dab]-NH2; thioether N-14)
5,0.12 µM,Cc1cccc(C[C@@H]2NC(=O)[C@H](CC(=O)O)NC(=O)[C@H](Cc3ccc(O)cc3)NC(=O)[C@H](CC(N)=O)NC(=O)CSC[C@@H](C(=O)N[C@H](C)C(N)=O)NC(=O)[C@H]([C@@H](C)O)NC(=O)[C@H](C(C)(C)O)NC(=O)[C@H](CC3CCCCC3)NC(=O)[C@H](CCN)NC(=O)[C@@H](CC(C)C)NC(=O)[C@H](C)N(C)C(=O)[C@H](CCCNC(N)=O)NC(=O)[C@H](Cc3ccc(-c4ccccc4)cc3)NC(=O)[C@H](C(C)(C)O)NC2=O)c1 [Compound 1706] ({CH2CO}-NYD[Phe(3-Me)][Val(3-OH)][Bip][Cit][NMeA][dL][Dab][Cha][Val(3-OH)]TC[dA]-NH2; thioether N-14)
6,0.03 µM,Cc1cccc(C[C@@H]2NC(=O)[C@H](CC(=O)O)NC(=O)[C@H](Cc3ccc(O)cc3)NC(=O)[C@H](CC(N)=O)NC(=O)CSC[C@@H](C(=O)N[C@@H](CCN)C(N)=O)NC(=O)[C@H](CCC(=O)O)NC(=O)[C@H](C(C)C)NC(=O)[C@H](CC3CCCCC3)NC(=O)[C@H](CCN)NC(=O)[C@@H](CC(C)C)NC(=O)[C@H](C)N(C)C(=O)[C@H](CCCNC(N)=O)NC(=O)[C@H](Cc3ccc(-c4ccccc4)cc3)NC(=O)[C@H](C(C)(C)O)NC2=O)c1 [Compound 1709] ({CH2CO}-NYD[Phe(3-Me)][Val(3-OH)][Bip][Cit][NMeA][dL][Dab][Cha]VEC[Dab]-NH2; thioether N-14)
